# Experimental data taken from patent US8759033B2, “CSNR-deficient actinobacteria for the production of an enzyme having chitosanase activity” (Socpra Sciences et Genie S.E.C., priority 2012, dated 2014).
# What was measured:
# CsnR [1] = target: T1, CsnR (Streptomyces lividans, UniProt A0ABN4DYL3); test: EMSA sugar binding assay: interference with CsnR binding to csnA-WT operator; settings: for effect on CsnR binding to operator (summary statement): equilibrium competition experiment and IC50 determination; for effect on gel shift pattern of CsnR with csnA-WT operator: saccharide at 500 nM, FIG. 9; for interference with CsnR binding to the csnA-WT probe: maximal tested concentration of 75 mM
# Procedure: For the electrophoretic mobility shift assay (EMSA), pairs of complementary oligonucleotides were annealed, generating double-stranded oligonucleotides csnA-WT (wild type), csnA-M1, csnA-M2, csnA-MM, and csnR-WT (see Table 3). Fifty picomoles of double-stranded oligonucleotide was end labeled with ^[γ-32P]ATP (3,000 Ci/mmol) and 20 U of T4 polynucleotide kinase and purified on a G-25 column. DNA binding reaction mixtures (24 μl) contained 10 mM HEPES (pH 7.9), 10% glycerol, 0.2 mM EDTA, 0.5 mM phenylmethylsulfonyl fluoride (PMSF), 0.25 mM DTT, 1 μg poly(dI-dC), and 150 mM KCl. For equilibrium dissociation constant (KD) determination, various concentrations of labeled csnA-WT or csnR-WT probe (0.1 nM to 1.5 nM) and ˜8.5 pmol of purified CsnR were used. For the determination of the 50% inhibitory concentration (IC50) of the DNA competitors, 0.03 nM labeled csnA-WT probe and ˜8.5 pmol of CsnR were used with various concentrations of competitor double-stranded oligonucleotide (0.1 to 125 nM). For the sugar binding assay, ˜8.5 pmol of CsnR was preincubated with glucose, GlcNAc, galactosamine, GlcN, or chitosan oligosaccharides (GlcN)2 to ([…]) in the binding reaction mixture for 15 min on ice before the addition of labeled csnA-WT probe (0.03 nM). Reaction mixtures were incubated at room temperature for 15 min with the labeled probe and then subjected to electrophoresis at 4° C. in a prerun gel (15 min) of 6% polyacrylamide (10 mM Tris, 80 mM glycine, 0.4 mM EDTA [pH 8.3]). Following electrophoresis, gels were dried, and band intensities were visualized with a Phosphorlmager™ and estimated with ImageQuant™ software (version 5.2). All determinations were done in triplicate. KD calculations were done with the Michaelis-Menten nonlinear fit (least squares), and the one-site log IC50 nonlinear fit (least squares) was used for IC50 calculations (GraphPad Prism™ version 5.03 for Windows; GraphPad, San Diego, Calif.).
# CsnR [2] = target: T1, CsnR; test: EMSA equilibrium competition with DNA competitors against labeled csnA-WT probe; settings: competitor double-stranded oligonucleotide 0.1 to 125 nM, 0.03 nM labeled csnA-WT probe, ~8.5 pmol CsnR, three independent experiments; read-out: IC50 (nM), effect of mutations in the operator sequence on CsnR binding
# Procedure: For the electrophoretic mobility shift assay (EMSA), pairs of complementary oligonucleotides were annealed, generating double-stranded oligonucleotides csnA-WT (wild type), csnA-M1, csnA-M2, csnA-MM, and csnR-WT (see Table 3). Fifty picomoles of double-stranded oligonucleotide was end labeled with ^[γ-32P]ATP (3,000 Ci/mmol) and 20 U of T4 polynucleotide kinase and purified on a G-25 column. DNA binding reaction mixtures (24 μl) contained 10 mM HEPES (pH 7.9), 10% glycerol, 0.2 mM EDTA, 0.5 mM phenylmethylsulfonyl fluoride (PMSF), 0.25 mM DTT, 1 μg poly(dI-dC), and 150 mM KCl. For equilibrium dissociation constant (KD) determination, various concentrations of labeled csnA-WT or csnR-WT probe (0.1 nM to 1.5 nM) and ˜8.5 pmol of purified CsnR were used. For the determination of the 50% inhibitory concentration (IC50) of the DNA competitors, 0.03 nM labeled csnA-WT probe and ˜8.5 pmol of CsnR were used with various concentrations of competitor double-stranded oligonucleotide (0.1 to 125 nM). For the sugar binding assay, ˜8.5 pmol of CsnR was preincubated with glucose, GlcNAc, galactosamine, GlcN, or chitosan oligosaccharides (GlcN)2 to (GlcN)5 at various concentrations (0.00075 to 75 mM) in the binding reaction mixture for 15 min on ice before the addition of labeled csnA-WT probe (0.03 nM). Reaction mixtures were incubated at room temperature for 15 min with the labeled probe and then subjected to electrophoresis at 4° C. in a prerun gel (15 min) of 6% polyacrylamide (10 mM Tris, 80 mM glycine, 0.4 mM EDTA [pH 8.3]). Following electrophoresis, gels were dried, and band intensities were visualized with a Phosphorlmager™ and estimated with ImageQuant™ software (version 5.2). All determinations were done in triplicate. KD calculations were done with the Michaelis-Menten nonlinear fit (least squares), and the one-site log IC50 nonlinear fit (least squares) was used for IC50 calculations (GraphPad Prism™ version 5.03 for Windows; GraphPad, San Diego, Calif.).
# T1 sequence (A0ABN4DYL3 entry or part of it): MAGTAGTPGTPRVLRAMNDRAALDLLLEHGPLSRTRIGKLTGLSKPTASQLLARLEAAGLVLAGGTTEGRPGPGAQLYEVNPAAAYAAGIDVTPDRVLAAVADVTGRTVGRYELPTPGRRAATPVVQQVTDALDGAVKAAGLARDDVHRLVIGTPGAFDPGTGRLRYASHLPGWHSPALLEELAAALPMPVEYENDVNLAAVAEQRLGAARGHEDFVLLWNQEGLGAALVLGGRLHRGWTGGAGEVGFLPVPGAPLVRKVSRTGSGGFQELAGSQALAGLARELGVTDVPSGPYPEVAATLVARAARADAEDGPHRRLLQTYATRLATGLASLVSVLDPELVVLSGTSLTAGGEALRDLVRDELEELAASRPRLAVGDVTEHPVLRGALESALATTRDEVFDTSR
Molecule,effect on CsnR binding to operator (summary statement) (CsnR [1]),effect on gel shift pattern of CsnR with csnA-WT operator (CsnR [1]),interference with CsnR binding to the csnA-WT probe (CsnR [1]),effect on CsnR binding to operator (summary statement) (CsnR [1]; listed as (GlcN)2),IC50 (CsnR [2])
"N[C@H]1C(O)O[C@H](CO)[C@@H](O)[C@@H]1O (stereo partly drawn) [GlcN, D-glucosamine]",impaired,strongly affected,,,
"CC(=O)N[C@H]1C(O)O[C@H](CO)[C@@H](O)[C@@H]1O (stereo partly drawn) [GlcNAc, N-acetyl-D-glucosamine]",no effect,no effect,do not interfere,,
NC1C(OC2C(CO)OC(O)C(N)C2O)OC(CO)C(O)C1O (stereo not drawn) [chitosan dimer],best effector,strongly affected,,preferential CsnR ligand molecule,
NC1C(OC2C(CO)OC(OC3C(CO)OC(OC4C(CO)OC(OC5C(CO)OC(O)C(N)C5O)C(N)C4O)C(N)C3O)C(N)C2O)OC(CO)C(O)C1O (stereo not drawn) [chitosan pentamer],,strongly affected,,,
N[C@H]1C(O)O[C@H](CO)[C@H](O)[C@@H]1O (stereo partly drawn) [galactosamine],no effect,,do not interfere,,
O=C[C@H](O)[C@@H](O)[C@H](O)[C@H](O)CO [glucose],no effect,no effect,do not interfere,,
"csnA-M1: double-stranded oligonucleotide, csnA operator mutated at position +2, SEQ ID NO: 43 (DNA CCTCTTCTGGTAGGAAACTGTCCTATCAGT; double-stranded, further chemistry not given here)",,,,,52.1 nM
"csnA-M2: double-stranded oligonucleotide, csnA operator mutated at position +6, SEQ ID NO: 44 (DNA CCTCTTCTGGTAGGAAACTTTCCGATCAGT; double-stranded, further chemistry not given here)",,,,,2.7 nM
"csnA-MM: double-stranded oligonucleotide, csnA operator doubly mutated at +2 and +6, SEQ ID NO: 45 (CCTCTTCTGGTAGGAAACTGTCCGATCAGT; double-stranded, further chemistry not given here)",,,,,105 nM
"csnA-WT: double-stranded oligonucleotide, wild-type csnA operator, SEQ ID NO: 42 (CCTCTTCTGGTAGGAAACTTTCCTATCAGT; double-stranded, further chemistry not given here)",,,,,1.3 nM
